Laboratory results: patent publication US10253007B2, “Taxanes compounds, preparation method therefor, and uses thereof” (Jiangsu Tasly Diyi Pharmaceutical Co., Ltd., priority 2013, dated 2019)
Where two headings read alike, the source gives them in different places.

Tests used:
Caco-2 cell monolayer = Caco-2 cell monolayer membrane transport assay; settings: Caco-2 cell line (21 days); for efflux ratio: Papp B-A/Papp A-B; for Papp A-B / Papp B-A: bidirectional transport, Table 5
Excerpt: (§3) Caco-2 Cell Monolayer Membrane Transport Assay
(§4) Human-derived colorectal adenocarcinoma cell line Caco-2 cell monolayer model was used to study the bidirectional transport of the target compounds from the apical (AP) side to the basolateral (BL) side and from BL side to AP side. HPLC was used for quantitative analysis to calculate transport parameters, apparent permeability coefficient (Papp) and the efflux ratio.

[1] = Caco-2 cell monolayer membrane transport assay; settings: human; for Papp A→B: Caco-2, Papp A-B; for recovery: Caco-2, Recovery rate in mass
Excerpt: as §3, §4

MCF-7 breast cancer = assay: MTT assay, proliferation inhibition; format: cell-based; settings: Homo sapiens, MCF7, read-out: Proliferation inhibition rate
Excerpt: (§1) 1. Cytotoxicity Assay Using Human Tumor Cell Lines
(§2) Paclitaxel was used as the positive drug.

[2] = test system: A549 non-small cell lung cancer; assay: MTT assay, proliferation inhibition; format: cell-based; settings: Homo sapiens, read-out: Proliferation inhibition rate
Excerpt: as §1, §2

A375 melanoma = assay: MTT assay, proliferation inhibition; format: cell-based; settings: Homo sapiens, A-375, read-out: Proliferation inhibition rate
Excerpt: as §1, §2

HT29 colon cancer = assay: MTT assay, proliferation inhibition; format: cell-based; settings: Homo sapiens, HT-29, read-out: Proliferation inhibition rate
Excerpt: as §1, §2

B16 melanoma = assay: MTT assay, proliferation inhibition; format: cell-based; settings: read-out: Proliferation inhibition rate
Excerpt: as §1, §2

MDA-MB-436 breast cancer = assay: MTT assay, proliferation inhibition; format: cell-based; settings: Homo sapiens, read-out: Proliferation inhibition rate
Excerpt: as §1, §2

BGC-823 gastric cancer = assay: MTT assay, proliferation inhibition; format: cell-based; settings: Homo sapiens, read-out: Proliferation inhibition rate
Excerpt: as §1, §2

A2780 ovarian cancer = assay: MTT assay, proliferation inhibition; format: cell-based; settings: Homo sapiens, read-out: Proliferation inhibition rate
Excerpt: as §1, §2

DU145 prostate cancer = assay: MTT assay, proliferation inhibition; format: cell-based; settings: Homo sapiens, DU-145, read-out: Proliferation inhibition rate
Excerpt: as §1, §2

[3] = MTT assay, proliferation inhibition; format: cell-based; settings: Homo sapiens, LN-18 gastric cancer, read-out: Proliferation inhibition rate
Excerpt: as §1, §2

HeLa cervical cancer = assay: MTT assay, proliferation inhibition; format: cell-based; settings: Homo sapiens, read-out: Proliferation inhibition rate
Excerpt: as §1, §2

LNCaP prostate cancer = assay: MTT assay, proliferation inhibition; format: cell-based; settings: Homo sapiens, read-out: Proliferation inhibition rate
Excerpt: as §1, §2

K562 leukemia = assay: MTT assay, proliferation inhibition; format: cell-based; settings: Homo sapiens, read-out: Proliferation inhibition rate
Excerpt: as §1, §2

HL60 leukemia = assay: MTT assay, proliferation inhibition; format: cell-based; settings: Homo sapiens, HL-60, read-out: Proliferation inhibition rate
Excerpt: as §1, §2

HCT 116 colon cancer = assay: MTT assay, proliferation inhibition; format: cell-based; settings: Homo sapiens, read-out: Proliferation inhibition rate
Excerpt: as §1, §2

[4] = test system: NCI-H460 non-small cell lung cancer; assay: MTT assay, proliferation inhibition; format: cell-based; settings: Homo sapiens, read-out: Proliferation inhibition rate
Excerpt: as §1, §2

[5] = test system: breast cancer cell line MCF-7; assay: IC50 values on breast cancer cell line MCF-7; format: cell-based; settings: Homo sapiens
Excerpt: From the activity evaluation data of the above-mentioned preliminary screen, it can be seen that the series of taxanes derivatives synthesized in the present invention have activity (although the activity of PCMI-43 is weakened). Afterward, most of the compounds are picked up from these derivatives to examine their IC50 values on breast cancer cell line MCF-7. Paclitaxel is used as the positive control drug. Experiments for each compound were independently repeated for three times and multiple holes were used in each experiment. The exposure time of drugs was 72 hours.

[6] = Mean, Caco-2, A-B, mean of two samples
[7] = Sample-01, Caco-2, A-B, Sample-01
[8] = Sample-02, Caco-2, A-B, Sample-02
[9] = MCF7, 72 h, read-out: MCF-7(IC50, nM)
[10] = Caco-2 cell line (21 days), bidirectional transport, Table 5
[11] = MCF7, MCF-7, exposure 72 hours, mean±SD of three independent experiments, read-out: MCF-7(IC50)

| Structure (SMILES) | Papp A→B [1, 7] [×10⁻⁶ cm/s] | Papp A→B [1, 8] [×10⁻⁶ cm/s] | recovery [1, 6] [%] | recovery [1, 7] [%] | recovery [1, 8] [%] | inhibition at 1 µM (MCF-7 breast cancer) [%] | inhibition at 1 µM [2] [%] | inhibition at 1 µM (HT29 colon cancer) [%] | inhibition at 1 µM (B16 melanoma) [%] | inhibition at 1 µM (MDA-MB-436 breast cancer) [%] | inhibition at 1 µM (BGC-823 gastric cancer) [%] | inhibition at 1 µM (A2780 ovarian cancer) [%] | inhibition at 1 µM (DU145 prostate cancer) [%] | inhibition at 1 µM [3] [%] | inhibition at 1 µM (HeLa cervical cancer) [%] | inhibition at 1 µM (LNCaP prostate cancer) [%] | inhibition at 1 µM (K562 leukemia) [%] | inhibition at 1 µM (HL60 leukemia) [%] | inhibition at 1 µM (HCT 116 colon cancer) [%] | inhibition at 1 µM [4] [%] | other results |
| --- | --- | --- | --- | --- | --- | --- | --- | --- | --- | --- | --- | --- | --- | --- | --- | --- | --- | --- | --- | --- | --- |
| CO[C@H]1C[C@H]2OC[C@@]2(OC(C)=O)[C@H]2[C@H](OC(=O)c3ccccc3)[C@]3(O)C[C@H](OC(=O)[C@H](O)[C@@H](NC(=O)OC(C)(C)C)c4ccccc4)C(C)=C([C@@H](OC(=O)N(C)C)C(=O)[C@]12C)C3(C)C [PCMI-22] | 9 | 8.38 | 89.4 | 92.4 | 86.4 | 85.7 | 69.9 | 87.9 | 74.7 | 81.1 | 92 | 96.3 | 87.1 | 95.5 | 102 | 80.9 | 92.2 | 97.5 | 81.1 | 86.5 | efflux ratio (Caco-2 cell monolayer): 4.08; Papp A-B (Caco-2 cell monolayer): 8.11 10^−6 cm/s; Papp B-A (Caco-2 cell monolayer): 33.11 10^−6 cm/s; Papp A→B [1, 6]: 8.69 ×10⁻⁶ cm/s; inhibition at 1 µM (A375 melanoma): 87.7%; IC50 [5, 9]: 1.58 ± 0.04 nM |
| CO[C@H]1C[C@H]2OC[C@@]2(OC(C)=O)[C@H]2[C@H](OC(=O)c3ccccc3)[C@]3(O)C[C@H](OC(=O)[C@H](O)[C@H](CC(C)C)NC(=O)OC(C)(C)C)C(C)=C([C@@H](OC(=O)N(C)C)C(=O)[C@]12C)C3(C)C [PCMI-25] | 6.41 | 9.92 | 71.2 | 63.9 | 78.5 | 89.8 | 69.5 | 87.3 | 71.8 | 78.4 | 90.2 | 94.8 | 82.9 | 92.5 | 101 | 80.4 | 90.9 | 97.7 | 78.3 | 80.7 | Papp B-A (Caco-2 cell monolayer): 32.58 10^−6 cm/s; Papp A→B [1, 10]: 8.25 ×10⁻⁶ cm/s; inhibition at 1 µM (A375 melanoma): 89%; IC50 [5, 9]: 1.7 ± 0.08 nM |
| COC(=O)O[C@H]1C(=O)[C@]2(C)[C@@H](OC)C[C@H]3OC[C@@]3(OC(C)=O)[C@H]2[C@H](OC(=O)c2ccccc2)[C@]2(O)C[C@H](OC(=O)[C@H](O)[C@@H](NC(=O)OC(C)(C)C)c3ccccc3)C(C)=C1C2(C)C [PCMI-26] | 8.45 | 9.06 | 81.4 | 80.9 | 82 | 95.5 | 66.2 | 88.8 | 69.7 | 76.3 | 89.2 | 95.8 | 86.2 | 89 | 101 | 79.8 | 91.4 | 96.8 | 81.1 | 86.4 | efflux ratio (Caco-2 cell monolayer): 4.22; Papp A-B (Caco-2 cell monolayer): 6.91 10^−6 cm/s; Papp B-A (Caco-2 cell monolayer): 29.18 10^−6 cm/s; Papp A→B [1, 6]: 8.75 ×10⁻⁶ cm/s; inhibition at 1 µM (A375 melanoma): 94.2%; IC50 [5, 11]: 1.4 ± 0.1 nM |
| COC(=O)O[C@H]1C(=O)[C@]2(C)[C@@H](OC)C[C@H]3OC[C@@]3(OC(C)=O)[C@H]2[C@H](OC(=O)c2ccccc2)[C@]2(O)C[C@H](OC(=O)[C@H](O)[C@H](CC(C)C)NC(=O)OC(C)(C)C)C(C)=C1C2(C)C [PCMI-28] | 8.58 | 9.46 | 70.8 | 64.8 | 76.8 | 103 | 72.5 | 89.1 | 74.1 | 84.3 | 92.2 | 95.6 | 85.7 | 97.5 | 99.7 | 84 | 92.6 | 96.9 | 81.1 | 85.8 | Papp A-B (Caco-2 cell monolayer): 8.87 10^−6 cm/s; Papp B-A (Caco-2 cell monolayer): 33.26 10^−6 cm/s; Papp A→B [1, 6]: 9.02 ×10⁻⁶ cm/s; IC50 [5, 9]: 2.9 ± 0.06 nM |
| CO[C@H]1C(=O)[C@]2(C)[C@@H](OC(=O)N(C)C)C[C@H]3OC[C@@]3(OC(C)=O)[C@H]2[C@H](OC(=O)c2ccccc2)[C@]2(O)C[C@H](OC(=O)[C@H](O)[C@@H](NC(=O)N(C)C)c3ccccc3)C(C)=C1C2(C)C [PCMI-35] | 3.21 | 2.87 | 91.3 | 95 | 87.6 | 92.5 | 76.2 | 87.3 | 80.3 | 80.2 | 95.8 | 94.2 | 89.8 | 93.5 | 99.9 | 85.3 | 92.7 | 97.5 | 65.5 | 86.9 | Papp A→B [1, 6]: 3.04 ×10⁻⁶ cm/s; inhibition at 1 µM (A375 melanoma): 95.3%; IC50 [5, 11]: 4.28 ± 0.08 nM |
| COC(=O)O[C@H]1C[C@H]2OC[C@@]2(OC(C)=O)[C@H]2[C@H](OC(=O)c3ccccc3)[C@]3(O)C[C@H](OC(=O)[C@H](O)[C@@H](NC(=O)OC(C)(C)C)c4ccccc4)C(C)=C([C@@H](OC)C(=O)[C@]12C)C3(C)C [PCMI-36] | 6.66 | 7.29 | 88.5 | 95.5 | 81.4 | 107 | 78 | 89.7 | 81.8 | 77.5 | 94.6 | 96.9 | 88.3 | 95.9 | 102 | 83.8 | 94.5 | 97.8 | 67.2 | 90.3 | inhibition at 1 µM (A375 melanoma): 94%; IC50 [5, 9]: 4.97 ± 0.06 nM |
| CCSC(=O)O[C@H]1C[C@H]2OC[C@@]2(OC(C)=O)[C@H]2[C@H](OC(=O)c3ccccc3)[C@]3(O)C[C@H](OC(=O)[C@H](O)[C@@H](NC(=O)N(C)C)c4ccccc4)C(C)=C([C@@H](OC)C(=O)[C@]12C)C3(C)C [PCMI-40] | 3.78 | 4.05 | 74.5 | 78.2 | 70.7 | 94.7 | 80.2 | 87.2 | 83.7 | 83.6 | 93.3 | 94.2 | 90 | 93.9 | 99.6 | 87.2 | 92.7 | 96.9 | 67.3 | 87.3 | Papp B→A ([1]; Caco-2): 37.2 ×10⁻⁶ cm/s; efflux ratio ([1]; Caco-2): 5.36; Papp A→B [1, 10]: 6.92 ×10⁻⁶ cm/s; Papp A→B [1, 6]: 3.92 ×10⁻⁶ cm/s; inhibition at 1 µM (A375 melanoma): 95.2%; IC50 [5, 9]: 5.49 ± 0.14 nM |
| CO[C@H]1C(=O)[C@]2(C)CC[C@H]3OC[C@@]3(OC(C)=O)[C@H]2[C@H](OC(=O)c2ccccc2)[C@]2(O)C[C@H](OC(=O)[C@H](O)[C@@H](NC(=O)OC(C)(C)C)c3ccccc3)C(C)=C1C2(C)C [PCMI-41] | 4.27 | 5.79 | 101 | 97 | 105 | 95.5 | 77 | 88.3 | 81.1 | 80.1 | 93.1 | 95.8 | 87.6 | 94.6 | 101 | 82.5 | 94.3 | 97.7 | 65 | 85.7 | Papp A→B [1, 6]: 5.03 ×10⁻⁶ cm/s; inhibition at 1 µM (A375 melanoma): 91.6%; IC50 [5, 11]: 3.33 ± 0.11 nM |
